Test results taken from EP4417602A1, “SUBSTITUTED PYRAZOLE CARBOXAMIDES, SALTS THEREOF AND THEIR USE AS HERBICIDALLY ACTIVE SUBSTANCES” (Bayer AG, priority 2023, dated 2024).

Legend:
ECHCG [1] = assay: A. Herbicidal pre-emergence action on harmful plants (Tables A); type: in vivo, Echinochloa crus-galli; settings: visual grading after ca. 3 weeks vs untreated controls, 100% = plants have died off, 0% = as control plants
Outline: (§1)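 Values are visual percent damage relative to untreated controls, scored ca. 3 weeks after the compound was sprayed on the covering soil of sown pots (sandy loam) at rates up to 1280 g/ha, formulated as WP or EC with 0.5% additive.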

LOLRI = assay: as above; type: in vivo, Lolium rigidum; settings: visual grading after ca. 3 weeks vs untreated controls, 100% = plants have died off, 0% = as control plants
Outline: as §1

MATIN = assay: as above; type: in vivo, Matricaria inodora; settings: visual grading after ca. 3 weeks vs untreated controls, 100% = plants have died off, 0% = as control plants
Outline: as §1

SETVI = assay: as above; type: in vivo, Setaria viridis; settings: visual grading after ca. 3 weeks vs untreated controls, 100% = plants have died off, 0% = as control plants
Outline: as §1

STEME [2] = assay: as above; type: in vivo, Stellaria media; settings: visual grading after ca. 3 weeks vs untreated controls, 100% = plants have died off, 0% = as control plants
Outline: as §1

POAAN [3] = assay: as above; type: in vivo, Poa annua
Outline: as §1

ALOMY = assay: as above; type: in vivo, Alopecurus myosuroides; settings: application rate 1280 g/ha; Table A9a
Source text: Seeds of mono- and dicotyledonous weed plants were sown in plastic pots (double sowings with one species of mono- and one species of dicotyledonous weed plants per pot), in sandy loam, and covered with soil. The compounds according to the invention, formulated in the form of wettable powders (WP) or as emulsifiable concentrates (EC), were applied to the surface of the covering soil as aqueous suspension or emulsion, with the addition of 0.5% of an additive, at an application rate of 6001 of water per hectare (converted). Following treatment, the pots were placed in a greenhouse and kept under optimum growth conditions for the test plants. The visual grading of the damage to the test plants was carried out after ca. 3 weeks in comparison to untreated controls (herbicidal effect in percent (%): 100% effect = plants have died off, 0% effect = as control plants). Tables A1 to A12, below, show the effects of selected compounds of the general formula (I) according to table 1 on various harmful plants and an application rate corresponding to 1280 g/ha or below obtained by the experimental procedure mentioned above. Table A1: pre-emergence activity at 1280g/ha against ABUTH in %

DIGSA [4] = assay: as above; type: in vivo, Digitaria sanguinalis
Outline: as §1

ABUTH = assay: B. Herbicidal post-emergence action on harmful plants (Tables B); type: in vivo, Abutilon theophrasti; settings: application rate 1280 g/ha; Table B1a
Protocol: (§2) Seeds of mono- and dicotyledonous weed plants were placed in plastic pots in sandy loam soil (doubly sown with in each case one species of mono- or dicotyledonous weed plants per pot), covered with soil and cultivated in a greenhouse under controlled growth conditions. 2 to 3 weeks after sowing, the test plants were treated at the one-leaf stage. The compounds of the invention, formulated in the form of wettable powders (WP) or as emulsion concentrates (EC), were applied onto the green parts of the plants as aqueous suspension or emulsion with addition of 0.5% additive at a water application rate of 600 liters per hectare (converted). After the test plants had been kept in the greenhouse under optimum growth conditions for about 3 weeks, the activity of the preparations was rated visually in comparison to untreated controls. For example, 100% activity = the plants have died, 0% activity = like control plants. Tables B1 to B12, below, show the effects of selected compounds of the general formula (I) according to table 1 on various harmful plants and an application rate corresponding to 1280 g/ha or below obtained by the experimental procedure mentioned above. Table B1a: post-emergence activity at 1280g/ha against ABUTH in %

ECHCG [5] = assay: as above; type: in vivo, Echinochloa crus-galli; settings: application rate 1280 g/ha; Table B2a
Protocol: as §2

POAAN [6] = assay: as above; type: in vivo, Poa annua; settings: application rate 1280 g/ha; Table B7a
Outline: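 Greenhouse weeds grown in sandy loam were sprayed post-emergence at the one-leaf stage, 2-3 weeks after sowing. Compounds were applied as WP or EC in water with 0.5% additive at 600 L/ha, at 1280 g/ha or below. Visual damage was rated after about 3 weeks versus untreated plants (0-100%).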

VERPE = assay: as above; type: in vivo, Veronica persica; settings: application rate 1280 g/ha; Table B11a
Protocol: as §2

AMARE = assay: as above; type: in vivo, Amaranthus retroflexus; settings: application rate 1280 g/ha; Table B8
Protocol: as §2

STEME [7] = assay: as above; type: in vivo, Stellaria media; settings: application rate 1280 g/ha; Table B6
Protocol: as §2

DIGSA [8] = assay: as above; type: in vivo, Digitaria sanguinalis; settings: application rate 1280 g/ha; Table B12a
Protocol: as §2

[9] = application rate 320 g/ha, Table A7b
[10] = application rate 1280 g/ha, visual grading after ca. 3 weeks vs untreated controls, 100% = plants have died off, 0% = as control plants
[11] = application rate 320 g/ha, Table A12b
[12] = application rate 1280 g/ha, Table A12a
[13] = application rate 80 g/ha, Table A7c

COCc1nn(C)cc1C(=O)N1CCCC1Cc1ccccc1C (racemic) [Example I-078]
pre-emergence activity against ECHCG (ECHCG [1]; application rate 320 g/ha): 90% | pre-emergence activity against ECHCG (ECHCG [1]; application rate 1280 g/ha): 100% | pre-emergence activity against LOLRI (LOLRI; application rate 320 g/ha): 100% | pre-emergence activity against LOLRI (LOLRI; application rate 1280 g/ha): 100% | pre-emergence activity against MATIN (MATIN; application rate 320 g/ha): 90% | pre-emergence activity against MATIN (MATIN; application rate 1280 g/ha): 90% | pre-emergence activity against SETVI (SETVI; application rate 320 g/ha): 90% | pre-emergence activity against SETVI (SETVI; application rate 1280 g/ha): 100% | pre-emergence activity against STEME (STEME [2]; application rate 80 g/ha): 90% | pre-emergence activity against STEME (STEME [2]; application rate 320 g/ha): 90% | pre-emergence activity against STEME (STEME [2]; application rate 1280 g/ha): 90% | pre-emergence activity against POAAN (POAAN [3]; [9]): 100% | pre-emergence activity against POAAN (POAAN [3]; [10]): 100% | pre-emergence activity against ALOMY (ALOMY): 90% | pre-emergence activity against DIGSA (DIGSA [4]; [11]): 90% | pre-emergence activity against DIGSA (DIGSA [4]; [12]): 90% | post-emergence activity against ABUTH (ABUTH): 90% | post-emergence activity against ECHCG (ECHCG [5]): 90% | post-emergence activity against POAAN (POAAN [6]): 90% | post-emergence activity against VERPE (VERPE): 90%

C=CCOCc1c(C(=O)N2CCCC2Cc2ccccc2F)cnn1C (single isomer, unassigned) [Example I-144]
pre-emergence activity against ECHCG (ECHCG [1]; application rate 320 g/ha): 90% | pre-emergence activity against ECHCG (ECHCG [1]; application rate 1280 g/ha): 100% | pre-emergence activity against SETVI (SETVI; application rate 1280 g/ha): 90% | pre-emergence activity against STEME (STEME [2]; application rate 1280 g/ha): 90% | pre-emergence activity against POAAN (POAAN [3]; [13]): 100% | pre-emergence activity against POAAN (POAAN [3]; [9]): 100% | pre-emergence activity against POAAN (POAAN [3]; [10]): 100% | pre-emergence activity against DIGSA (DIGSA [4]; [12]): 90% | post-emergence activity against AMARE (AMARE): 90%

CCOCc1nn(C)cc1C(=O)N1CCC1Cc1ccccc1Cl (racemic) [Example I-106]
pre-emergence activity against ECHCG (ECHCG [1]; application rate 80 g/ha): 90% | pre-emergence activity against ECHCG (ECHCG [1]; application rate 320 g/ha): 90% | pre-emergence activity against ECHCG (ECHCG [1]; application rate 1280 g/ha): 100% | pre-emergence activity against LOLRI (LOLRI; application rate 1280 g/ha): 90% | pre-emergence activity against SETVI (SETVI; application rate 80 g/ha): 90% | pre-emergence activity against SETVI (SETVI; application rate 320 g/ha): 100% | pre-emergence activity against SETVI (SETVI; application rate 1280 g/ha): 100% | pre-emergence activity against STEME (STEME [2]; application rate 1280 g/ha): 90% | pre-emergence activity against POAAN (POAAN [3]; [9]): 100% | pre-emergence activity against POAAN (POAAN [3]; [10]): 100% | pre-emergence activity against DIGSA (DIGSA [4]; [11]): 90% | pre-emergence activity against DIGSA (DIGSA [4]; [12]): 100% | post-emergence activity against AMARE (AMARE): 90%

CCOCc1nn(C)cc1C(=O)N1CCC1Cc1ccccc1F (racemic) [Example I-105]
pre-emergence activity against ECHCG (ECHCG [1]; application rate 320 g/ha): 90% | pre-emergence activity against ECHCG (ECHCG [1]; application rate 1280 g/ha): 100% | pre-emergence activity against LOLRI (LOLRI; application rate 1280 g/ha): 90% | pre-emergence activity against SETVI (SETVI; application rate 1280 g/ha): 100% | pre-emergence activity against POAAN (POAAN [3]; [10]): 100% | pre-emergence activity against DIGSA (DIGSA [4]; [11]): 100% | pre-emergence activity against DIGSA (DIGSA [4]; [12]): 100% | post-emergence activity against STEME (STEME [7]): 90% | post-emergence activity against POAAN (POAAN [6]): 90% | post-emergence activity against AMARE (AMARE): 90%

COCc1nn(CCC(OC)OC)cc1C(=O)N1CCCC1Cc1ccccc1F (racemic) [Example I-048]
pre-emergence activity against ECHCG (ECHCG [1]; application rate 1280 g/ha): 90% | pre-emergence activity against LOLRI (LOLRI; application rate 1280 g/ha): 90% | pre-emergence activity against POAAN (POAAN [3]; [9]): 90% | pre-emergence activity against POAAN (POAAN [3]; [10]): 100% | pre-emergence activity against DIGSA (DIGSA [4]; [12]): 90% | post-emergence activity against AMARE (AMARE): 90%

CCOCc1nn(C)cc1C(=O)N1CCC1Cc1c(F)cccc1Cl (racemic) [Example I-110]
pre-emergence activity against ECHCG (ECHCG [1]; application rate 320 g/ha): 90% | pre-emergence activity against ECHCG (ECHCG [1]; application rate 1280 g/ha): 100% | pre-emergence activity against LOLRI (LOLRI; application rate 320 g/ha): 90% | pre-emergence activity against LOLRI (LOLRI; application rate 1280 g/ha): 100% | pre-emergence activity against MATIN (MATIN; application rate 1280 g/ha): 90% | pre-emergence activity against SETVI (SETVI; application rate 1280 g/ha): 100% | pre-emergence activity against STEME (STEME [2]; application rate 1280 g/ha): 90% | pre-emergence activity against POAAN (POAAN [3]; [9]): 90% | pre-emergence activity against POAAN (POAAN [3]; [10]): 100% | pre-emergence activity against DIGSA (DIGSA [4]; [11]): 90% | pre-emergence activity against DIGSA (DIGSA [4]; [12]): 90% | post-emergence activity against AMARE (AMARE): 100%

COCc1nn(C)cc1C(=O)N1CCC1Cc1ccccc1Cl (racemic) [Example I-113]
pre-emergence activity against ECHCG (ECHCG [1]; application rate 1280 g/ha): 90% | pre-emergence activity against MATIN (MATIN; application rate 1280 g/ha): 90% | pre-emergence activity against POAAN (POAAN [3]; [9]): 100% | pre-emergence activity against POAAN (POAAN [3]; [10]): 100% | post-emergence activity against AMARE (AMARE): 90%

C=CCn1cc(C(=O)N2CCCC2Cc2ccccc2F)c(COC)n1 (racemic) [Example I-039]
pre-emergence activity against ECHCG (ECHCG [1]; application rate 1280 g/ha): 90% | pre-emergence activity against LOLRI (LOLRI; application rate 320 g/ha): 90% | pre-emergence activity against LOLRI (LOLRI; application rate 1280 g/ha): 90% | pre-emergence activity against MATIN (MATIN; application rate 1280 g/ha): 90% | pre-emergence activity against SETVI (SETVI; application rate 320 g/ha): 90% | pre-emergence activity against SETVI (SETVI; application rate 1280 g/ha): 90% | pre-emergence activity against STEME (STEME [2]; application rate 1280 g/ha): 90% | pre-emergence activity against POAAN (POAAN [3]; [13]): 90% | pre-emergence activity against POAAN (POAAN [3]; [9]): 100% | pre-emergence activity against POAAN (POAAN [3]; [10]): 100% | pre-emergence activity against ALOMY (ALOMY): 90% | pre-emergence activity against DIGSA (DIGSA [4]; [11]): 90% | pre-emergence activity against DIGSA (DIGSA [4]; [12]): 90% | post-emergence activity against ECHCG (ECHCG [5]): 90% | post-emergence activity against DIGSA (DIGSA [8]): 90%
